Experimental findings from US10954219B2, “1,3-benzodioxole derivative” (DAIICHI SANKYO COMPANY, LIMITED, priority 2014, dated 2021) are described below.

Each structure is given as a SMILES string.

Experiment [1] addresses T1, PRC2-EZH2 (WT EZH2) (Homo sapiens, UniProt Q15910).
T1 construct: made in house
Description: EZH2 methyltransferase inhibitory activity evaluation. Format: biochemical. The settings on record: PRC2-EZH2, biotin-H3 peptide, 3H-SAM, 2 hours.
Description: EZH2 Methyltransferase Inhibitory Activity Evaluation
(§1) Then, the residual radioactivity was measured using TopCount NXT HTS (PerkinElmer, Inc., model C384V01).

In experiment [2] the test system is Intracellular H3K27me3 in HCT116 cells. Kind of experiment: Intracellular H3K27me3 inhibitory activity evaluation. In kind it is cell-based. To be noted: Homo sapiens, HCT-116, 72 h, 3 days, AlphaLISA, read-out: Test Example 3 H3K27me3 inhibition (HCT116) IC50.
Description: The HCT116 cells were purchased from American Type Culture Collection (ATCC). […] Intracellular H3K27me3 was quantified using AlphaLISA H3K27me3 Cellular Detection Kit (PerkinElmer, Inc., #AL722F). The cells thus cultured in each well were washed with 100 μL of PBS. Cell-Histone Lysis buffer diluted 6-fold with PBS was added thereto at 80 μL/well, and the plate was then incubated at room temperature for 15 minutes while shaken. Then, Cell-Histone Extraction buffer was added thereto at 40 μL/well, and the plate was incubated at room temperature for 10 minutes while shaken. […] An AlphaLISA anti-H3K27me3 Acceptor beads/Biotinylated Antibody anti-Histone H3 (C-ter) mixed solution was added thereto at 3.3 μL/well, and the plate was incubated at room temperature for 60 minutes. Then, Streptavidin (SA)-coated Donor beads were added thereto at 3.3 μL/well, and the plate was incubated at room temperature for 30 minutes with the plate shielded from light.
For experiment [3], the target named is PRC2-EZH1 (WT EZH1) (Homo sapiens, UniProt Q92800). Kind of experiment: EZH1 methyltransferase inhibitory activity evaluation.
Sequence of PRC2-EZH1 (WT EZH1) (Q92800 whole entry): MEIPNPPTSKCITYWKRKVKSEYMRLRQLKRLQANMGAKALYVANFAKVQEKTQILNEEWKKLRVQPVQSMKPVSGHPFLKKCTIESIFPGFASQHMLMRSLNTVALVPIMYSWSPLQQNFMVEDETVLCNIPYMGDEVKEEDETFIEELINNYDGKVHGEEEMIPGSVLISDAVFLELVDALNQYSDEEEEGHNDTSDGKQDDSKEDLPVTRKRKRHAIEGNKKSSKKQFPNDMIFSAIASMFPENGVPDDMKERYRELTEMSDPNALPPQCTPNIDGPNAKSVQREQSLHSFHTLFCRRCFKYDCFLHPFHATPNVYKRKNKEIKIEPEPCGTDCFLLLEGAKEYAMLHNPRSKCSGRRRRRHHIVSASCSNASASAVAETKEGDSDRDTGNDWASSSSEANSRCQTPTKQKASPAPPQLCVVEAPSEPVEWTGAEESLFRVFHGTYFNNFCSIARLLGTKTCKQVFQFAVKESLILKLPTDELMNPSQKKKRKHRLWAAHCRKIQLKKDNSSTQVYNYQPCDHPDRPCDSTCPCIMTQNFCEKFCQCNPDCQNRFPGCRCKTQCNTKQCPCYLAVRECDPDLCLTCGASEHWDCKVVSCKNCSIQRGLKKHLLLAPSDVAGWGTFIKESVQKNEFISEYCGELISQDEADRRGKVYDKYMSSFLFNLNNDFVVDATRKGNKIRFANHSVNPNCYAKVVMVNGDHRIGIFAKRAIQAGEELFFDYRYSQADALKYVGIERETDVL
Sequence of PRC2-EZH1 (WT EZH1) (O75530 whole entry partner): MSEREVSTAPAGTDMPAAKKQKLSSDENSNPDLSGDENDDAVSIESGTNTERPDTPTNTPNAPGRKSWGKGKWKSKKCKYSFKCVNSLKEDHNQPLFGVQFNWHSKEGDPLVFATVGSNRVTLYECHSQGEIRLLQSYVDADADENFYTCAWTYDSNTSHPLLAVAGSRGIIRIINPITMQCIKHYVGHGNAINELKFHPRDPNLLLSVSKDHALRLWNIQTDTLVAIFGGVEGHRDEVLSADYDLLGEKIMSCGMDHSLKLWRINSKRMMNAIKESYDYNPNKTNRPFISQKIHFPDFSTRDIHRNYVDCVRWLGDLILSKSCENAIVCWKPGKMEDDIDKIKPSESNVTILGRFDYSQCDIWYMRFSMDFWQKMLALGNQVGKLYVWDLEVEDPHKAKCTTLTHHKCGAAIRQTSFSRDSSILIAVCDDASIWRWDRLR
Sequence of PRC2-EZH1 (WT EZH1) (Q15022 whole entry partner): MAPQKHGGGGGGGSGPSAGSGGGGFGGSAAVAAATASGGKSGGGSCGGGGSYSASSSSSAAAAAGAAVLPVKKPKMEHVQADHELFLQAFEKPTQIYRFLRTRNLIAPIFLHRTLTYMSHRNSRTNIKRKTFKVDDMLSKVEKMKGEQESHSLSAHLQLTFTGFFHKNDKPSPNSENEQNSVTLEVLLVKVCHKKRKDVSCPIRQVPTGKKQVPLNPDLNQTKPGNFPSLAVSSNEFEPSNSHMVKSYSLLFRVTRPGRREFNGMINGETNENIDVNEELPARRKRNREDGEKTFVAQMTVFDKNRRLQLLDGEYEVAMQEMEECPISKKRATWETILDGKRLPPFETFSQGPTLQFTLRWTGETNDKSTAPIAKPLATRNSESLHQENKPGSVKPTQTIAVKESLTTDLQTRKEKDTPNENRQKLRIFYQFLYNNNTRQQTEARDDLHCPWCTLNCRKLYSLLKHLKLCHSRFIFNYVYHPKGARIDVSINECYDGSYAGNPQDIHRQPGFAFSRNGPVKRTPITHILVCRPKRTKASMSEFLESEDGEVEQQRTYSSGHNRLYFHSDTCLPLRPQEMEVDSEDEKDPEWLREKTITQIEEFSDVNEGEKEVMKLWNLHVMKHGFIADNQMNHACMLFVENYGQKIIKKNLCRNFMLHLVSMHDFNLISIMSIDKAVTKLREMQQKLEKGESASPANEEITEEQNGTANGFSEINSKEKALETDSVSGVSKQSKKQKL
Sequence of PRC2-EZH1 (WT EZH1) (Q09028 whole entry partner): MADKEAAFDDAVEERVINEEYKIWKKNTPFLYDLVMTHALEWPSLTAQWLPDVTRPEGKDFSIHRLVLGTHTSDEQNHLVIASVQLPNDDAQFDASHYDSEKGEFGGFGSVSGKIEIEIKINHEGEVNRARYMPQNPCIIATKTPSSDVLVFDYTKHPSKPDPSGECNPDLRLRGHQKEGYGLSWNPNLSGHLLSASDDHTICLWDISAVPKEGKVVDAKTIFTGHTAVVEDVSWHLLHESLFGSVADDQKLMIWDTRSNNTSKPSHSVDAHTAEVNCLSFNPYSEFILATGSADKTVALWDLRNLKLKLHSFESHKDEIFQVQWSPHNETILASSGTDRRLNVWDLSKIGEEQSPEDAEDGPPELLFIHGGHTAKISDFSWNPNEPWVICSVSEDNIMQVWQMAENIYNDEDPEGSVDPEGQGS
Sequence of PRC2-EZH1 (WT EZH1) (Q6ZN18 whole entry partner): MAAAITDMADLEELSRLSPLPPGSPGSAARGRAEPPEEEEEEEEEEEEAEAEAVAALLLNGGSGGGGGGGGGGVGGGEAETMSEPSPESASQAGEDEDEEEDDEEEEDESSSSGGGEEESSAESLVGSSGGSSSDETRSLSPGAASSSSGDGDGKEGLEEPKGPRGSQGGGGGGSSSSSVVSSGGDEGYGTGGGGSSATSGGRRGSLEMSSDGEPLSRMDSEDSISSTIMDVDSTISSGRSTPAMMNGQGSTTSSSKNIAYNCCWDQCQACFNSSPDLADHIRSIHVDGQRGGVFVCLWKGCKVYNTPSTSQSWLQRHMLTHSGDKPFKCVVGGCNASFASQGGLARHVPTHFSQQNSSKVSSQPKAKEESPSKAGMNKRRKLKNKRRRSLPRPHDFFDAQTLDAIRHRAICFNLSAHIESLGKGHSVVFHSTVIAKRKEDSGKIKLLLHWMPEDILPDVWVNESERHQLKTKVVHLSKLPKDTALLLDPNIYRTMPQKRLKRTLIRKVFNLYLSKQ
Description: EZH1 Methyltransferase Inhibitory Activity Evaluation
as §1

T1 sequence (Q15910 whole entry): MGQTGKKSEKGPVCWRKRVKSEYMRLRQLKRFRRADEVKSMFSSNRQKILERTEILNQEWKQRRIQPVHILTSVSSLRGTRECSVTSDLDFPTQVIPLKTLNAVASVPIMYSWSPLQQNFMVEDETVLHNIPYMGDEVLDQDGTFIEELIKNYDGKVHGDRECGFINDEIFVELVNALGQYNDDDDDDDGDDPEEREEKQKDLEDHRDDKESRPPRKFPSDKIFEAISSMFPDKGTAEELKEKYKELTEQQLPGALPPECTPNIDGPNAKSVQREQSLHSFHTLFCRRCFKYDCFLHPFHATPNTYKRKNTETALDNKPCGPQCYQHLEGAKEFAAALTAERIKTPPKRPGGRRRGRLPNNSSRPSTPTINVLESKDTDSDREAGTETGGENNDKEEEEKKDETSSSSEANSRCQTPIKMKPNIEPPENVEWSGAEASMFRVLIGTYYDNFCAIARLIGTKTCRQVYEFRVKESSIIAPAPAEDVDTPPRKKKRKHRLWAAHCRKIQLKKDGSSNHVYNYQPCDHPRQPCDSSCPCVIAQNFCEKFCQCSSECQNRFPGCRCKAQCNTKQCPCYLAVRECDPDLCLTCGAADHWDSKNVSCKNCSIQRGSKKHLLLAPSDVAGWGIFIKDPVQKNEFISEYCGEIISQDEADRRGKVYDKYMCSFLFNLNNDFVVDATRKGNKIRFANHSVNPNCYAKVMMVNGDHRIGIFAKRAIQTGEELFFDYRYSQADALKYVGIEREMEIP
T1 sequence (O75530 whole entry partner): as the sequence (O75530 whole entry partner) above
T1 sequence (Q15022 whole entry partner): as the sequence (Q15022 whole entry partner) above

With `Cc1cc(C)c(CNC(=O)c2cc(Br)c3c(c2C)OC(C)([C@H]2CC[C@H](N)CC2)O3)c(=O)[nH]1` (relative stereo) [Example 13, 2-(trans-4-Aminocyclohexyl)-7-bromo-N-[(4,6-dimethyl-2-oxo-1,2-dihydropyridin-3-yl)methyl]-2,4-dimethyl-1,3-benzodioxole-5-carboxamide], the 50% inhibitory concentration (IC50) in experiment [1] turned out to be 16 nM; in experiment [2], 5.9 nM; in experiment [3] it was 21 nM.

For the compound `COc1cc(C)[nH]c(=O)c1CNC(=O)c1cc(Br)c2c(c1C)OC(C)([C@H]1CC[C@H](N(C)C)CC1)O2` (relative stereo) [Example 16, 7-Bromo-2-[trans-4-(dimethylamino)cyclohexyl]-N-[(4-methoxy-6-methyl-2-oxo-1,2-dihydropyridin-3-yl)methyl]-2,4-dimethyl-1,3-benzodioxole-5-carboxamide], the figures for the IC50 in experiment [1], in experiment [2] and in experiment [3] were 12 nM, 1.4 nM and 9.4 nM, respectively.

Turning to `CCc1cc(C)[nH]c(=O)c1CNC(=O)c1cc(Br)c2c(c1C)OC(C)([C@H]1CC[C@H](N(C)C)CC1)O2` (relative stereo) [Example 17, 7-Bromo-2-[trans-4-(dimethylamino)cyclohexyl]-N-[(4-ethyl-6-methyl-2-oxo-1,2-dihydropyridin-3-yl)methyl]-2,4-dimethyl-1,3-benzodioxole-5-carboxamide], the IC50 in experiment [1] is 23 nM; in experiment [2], 1.2 nM; in experiment [3], 17 nM.

`CCCc1cc(C)[nH]c(=O)c1CNC(=O)c1cc(Br)c2c(c1C)OC(C)([C@H]1CC[C@H](N(C)C)CC1)O2` (relative stereo) [Example 18, 7-Bromo-2-[trans-4-(dimethylamino)cyclohexyl]-2,4-dimethyl-N-[(6-methyl-2-oxo-4-propyl-1,2-dihydropyridin-3-yl)methyl]-1,3-benzodioxole-5-carboxamide]: the IC50 in experiment [1] is 23 nM; in experiment [2], 5.8 nM; in experiment [3] it was 19 nM.

`Cc1cc(C)c(CNC(=O)c2cc(Br)c3c(c2C)OC(C)([C@H]2CC[C@@H](N(C)C)CC2)O3)c(=O)[nH]1` (relative stereo) [Example 41, 7-Bromo-2-[cis-4-(dimethylamino)cyclohexyl]-N-[(4,6-dimethyl-2-oxo-1,2-dihydropyridin-3-yl)methyl]-2,4-dimethyl-1,3-benzodioxole-5-carboxamide]: in experiment [2], the IC50 came to 11 nM.

Consider `Cc1cc(C)c(CNC(=O)c2cc(Br)c3c(c2C)OC(C)(C2CCOCC2)O3)c(=O)[nH]1` (stereo not drawn) [Example 2, 7-Bromo-N-[(4,6-dimethyl-2-oxo-1,2-dihydropyridin-3-yl)methyl]-2,4-dimethyl-2-(tetrahydropyran-4-yl)-1,3-benzodioxole-5-carboxamide], for which the figures for the IC50 in experiment [1] and in experiment [2] were 22 nM and 9 nM, respectively.

Turning to `CCCN1CCC([C@@]2(C)Oc3c(Br)cc(C(=O)NCc4c(C)cc(C)[nH]c4=O)c(C)c3O2)CC1` [Example 9, (2R)-7-Bromo-N-[(4,6-dimethyl-2-oxo-1,2-dihydropyridin-3-yl)methyl]-2,4-dimethyl-2-(1-propyl-4-piperidyl)-1,3-benzodioxole-5-carboxamide], the IC50 in experiment [1] was 11 nM; in experiment [2], 13 nM.

For the compound `CCS(=O)(=O)N1CCC([C@@]2(C)Oc3c(Br)cc(C(=O)NCc4c(C)cc(C)[nH]c4=O)c(C)c3O2)CC1` [Example 11, (2R)-7-Bromo-N-[(4,6-dimethyl-2-oxo-1,2-dihydropyridin-3-yl)methyl]-2-(1-ethylsulfonyl-4-piperidyl)-2,4-dimethyl-1,3-benzodioxole-5-carboxamide], the IC50 in experiment [1] was 9.1 nM; in experiment [2], 3.7 nM.

Regarding `Cc1cc(C)c(CNC(=O)c2cc(Br)c3c(c2C)OC(C)([C@@H]2CC[C@@H](N(C)C)CO2)O3)c(=O)[nH]1` (stereo partly drawn) [Example 22, 7-Bromo-2-[(2S,5R)-5-(dimethylamino)tetrahydropyran-2-yl]-N-[(4,6-dimethyl-2-oxo-1,2-dihydropyridin-3-yl)methyl]-2,4-dimethyl-1,3-benzodioxole-5-carboxamide], the IC50 came out at 14 nM in experiment [1] and 1.6 nM in experiment [2].
